Experimental data published in US7405041B2, “Methods for regulating transcription by targeting quadruplex DNA” (Arizona Board of Regents on behalf of the University of …, priority 2002, dated 2008).

How the values were obtained:
B-actin RNA = experiment: Real-time reverse-transcription PCR gene expression in Colo-205 cells, B-actin; format: cell-based; details: minimally cytotoxic doses
Experimental: (§1) Cells were treated with telomestatin (interacts with the putative tetrad:heptad in HER-2/neu) and TmPyP4 (negative control) at various concentrations and times. Cytotoxicity studies using MTS were performed to determine a non-toxic or minimally toxic dose and duration of treatment. Cells were harvested after treatment for RNA extraction, and “target” versus “non-target” gene expression is measured by real-time reverse-transcription PCR according to established methods.
(§2) Target genes included two known tetrad/heptad (T:H) forming genes, HER-2/neu and c-MYB. c-MYC was analyzed as a positive control, having a known chair quadruplex forming regulatory unit in the nuclease hypersensitive element of the P1 promoter. […]
(§3) A panel of cell lines including SK-BR-3 breast cancer, BT-474 breast cancer, MCF-7 breast cancer, Colo-205 colon cancer, and HeLa cervical cancer were treated with the quadruplex interactive compound TmPyP4 to assess for the cytotoxicity of this agent against a panel of cell lines with various levels of expression of HER-2/neu, c-MYB, and c-MYC. At minimally cytotoxic doses, Colo-205 cells were analyzed for gene expression after treatment with TmPyP4 and using real-time reverse-transcription PCR.

HER-2/neu quadruplex = experiment: DNA polymerase arrest assay, HER-2/neu promoter template; format: biochemical; details: temperature gradient of 37° C. to 57° C., in the presence of potassium
Description: (§4) A polymerase arrest assay is useful for determining whether transcription is modulated by a candidate molecule and/or a nucleic acid binding protein. Such an assay includes a template nucleic acid, which often comprises a quadruplex forming sequence, and a primer nucleic acid which hybridizes to the template nucleic acid […] of the quadruplex-forming sequence. The primer is extended by a polymerase (e.g., Taq polymerase), which advances from the primer along the template nucleic acid. In this assay, a quadruplex structure can block or arrest the advance of the enzyme, leading to shorter transcription fragments. Also, the arrest assay may be conducted at a variety of temperatures, including 45° C. and 60° C., and at a variety of ion concentrations. An example of the Taq polymerase stop assay is described in Han, et al., Nucl. Acids Res. 27:537-542 (1999), which is a modification of that used by Weitzmann, et al., J. Biol. Chem. 271, 20958-20964 (1996). Briefly, a reaction mixture of template DNA (50 nM), Tris∘HCl (50 mM), MgCl2 (10 mM), DTT (0.5 mM), EDTA (0.1 mM), BSA (60 ng), and 5′-end-labeled quadruplex nucleic acid (˜18 nM) is heated to 90° C. for 5 minutes and allowed to cool to ambient temperature over 30 minutes. Taq Polymerase (1 μl) is added to the reaction mixture, and the reaction is maintained at a constant temperature for 30 minutes. […]

GAPDH RNA = experiment: Real-time reverse-transcription PCR gene expression in Colo-205 cells, GAPDH; format: cell-based; details: minimally cytotoxic doses
Experimental: as §1, §2, §3

c-MYC RNA = experiment: Real-time reverse-transcription PCR gene expression in Colo-205 cells, c-MYC; format: cell-based; details: minimally cytotoxic doses
Experimental: as §1, §2, §3

[1] = test system: c-MYB nucleic acid (heptad:tetrad quadruplex); experiment: DNA polymerase arrest assay, c-MYB nucleic acid; format: biochemical; details: temperature gradient of 37° C. to 57° C., in the presence of potassium
Description: as §4

HER-2/neu RNA = experiment: Real-time reverse-transcription PCR gene expression in Colo-205 cells, HER-2/neu; format: cell-based; details: minimally cytotoxic doses
Experimental: as §1, §2, §3

c-MYB RNA = experiment: Real-time reverse-transcription PCR gene expression in Colo-205 cells, c-MYB; format: cell-based; details: minimally cytotoxic doses
Experimental: as §1, §2, §3

quadruplex DNA = details: stated as reason for use as negative control; cited from earlier work

Compound | B-actin RNA level (B-actin RNA) | interaction with and stabilization of the HER-2/neu quadruplex (HER-2/neu quadruplex) | GAPDH RNA level (GAPDH RNA) | c-MYC RNA level (c-MYC RNA) | interaction with and stabilization of the c-MYB nucleic acid [1] | HER-2/neu RNA level (HER-2/neu RNA) | c-MYB RNA level (c-MYB RNA) | interaction with quadruplex DNA (quadruplex DNA)
C[n+]1ccc(-c2c3nc(c(-c4cc[n+](C)cc4)c4ccc([nH]4)c(-c4cc[n+](C)cc4)c4ccc([nH]4)c(-c4cc[n+](C)cc4)c4nc2C=C4)C=C3)cc1 [TMPyP4] | not a reduction | no apparent change in the stability of the HER-2/neu quadruplex | not a reduction | reduction | interacted with and stabilized the c-MYB nucleic acid | not a reduction | reduction | 
C[n+]1ccccc1-c1c2nc(c(-c3cccc[n+]3C)c3ccc([nH]3)c(-c3cccc[n+]3C)c3ccc([nH]3)c(-c3cccc[n+]3C)c3nc1C=C3)C=C2 [TmPyP2] |  |  |  |  |  |  |  | interacts only weakly with quadruplex DNA
